According to ChEMBL document CHEMBL4689842, “EUbOPEN Chemogenomics Library wave 1” (2021):

Tests used:
[1] = test system: Fibroblast; experiment: Incucyte cell viability with human fibroblast; assay type: toxicity, cell-based; conditions: 10 µM, compound concentration 10 uM
[2] = test system: U2OS; experiment: Incucyte cell viability with U2OS; assay type: toxicity, cell-based; conditions: human, 10 µM, compound concentration 10 uM
[3] = 0 h, replicate number 2, timepoint 0 hours
[4] = 6 h, replicate number 1, timepoint 6 hours
[5] = 12 h, replicate number 1, timepoint 12 hours
[6] = 18 h, replicate number 2, timepoint 18 hours
[7] = 24 h, replicate number 1, timepoint 24 hours
[8] = 0 h, replicate number 1, timepoint 0 hours
[9] = 18 h, replicate number 1, timepoint 18 hours
[10] = 6 h, replicate number 2, timepoint 6 hours
[11] = 12 h, replicate number 2, timepoint 12 hours
[12] = 24 h, replicate number 2, timepoint 24 hours
Also: filed as whole numbers so only -1 and 0 and 1 occur.

SMILES | Growth Rate [1, 3] | Growth Rate [1, 4] | Growth Rate [1, 5] | Growth Rate [1, 6] | Growth Rate [1, 7] | Growth Rate [2, 8] | Growth Rate [2, 4] | Growth Rate [2, 5] | Growth Rate [2, 9] | Growth Rate [2, 7] | Growth Rate [1, 8] | Growth Rate [1, 10] | Growth Rate [1, 11] | Growth Rate [1, 9] | Growth Rate [2, 10] | Growth Rate [2, 11] | Growth Rate [2, 6] | Growth Rate [2, 12] | Growth Rate [2, 3] | Growth Rate [1, 12]
C[C@]1(O)C[C@@H](c2nc(-c3ccc4ccc(-c5ccccc5)nc4c3)c3c(N)nccn32)C1 [LINSITINIB] | 0 | 1 | 1 | 1 | 1 | 1 | 0 | 0 | 0 | 0 | – | – | – | – | – | – | – | – | – | –
CC1=C(C(=O)Nc2cc3cn[nH]c3cc2F)C(c2ccc(C(F)(F)F)cc2)CC(=O)N1 (centres undefined) | – | – | – | – | 1 | – | – | – | 1 | 1 | 0 | – | – | – | – | – | – | – | – | –
CC(C)OC(=O)N1CCC(Oc2ncnc3c2cnn3-c2ccc(S(C)(=O)=O)cc2F)CC1 | – | 1 | 1 | 0 | 0 | 0 | – | 1 | 1 | 1 | 0 | 0 | 0 | 1 | 0 | 0 | 0 | 0 | – | –
Cc1c[nH]c2nccc(Oc3c(F)cc(Nc4cc(Cl)nc(N)n4)cc3F)c12 [BAY-549] | – | – | 0 | – | 0 | – | 0 | 0 | 0 | 0 | 0 | – | 1 | 0 | – | – | – | – | 0 | –
O=c1cc(N2CCOCC2)oc2c(-c3cccc4c3sc3ccccc34)cccc12 | 0 | 0 | 0 | 1 | 0 | 0 | 0 | 0 | 0 | 0 | – | – | – | 0 | 1 | 1 | – | – | – | 1
Cc1cc(C)c(-n2ccn3nc(-c4cccnc4)cc23)cc1NC(=O)c1cc(C#N)cc(S(F)(F)(F)(F)F)c1 [BAY-826] | – | 1 | 1 | – | 1 | – | 1 | 0 | 0 | 0 | 0 | – | – | 1 | – | – | – | – | 0 | –
CCc1ccc(OCc2ccccc2C(=O)Nc2ccc3nc(C)cc(N)c3c2)cc1.Cl | – | 0 | 0 | – | 0 | 0 | 0 | 0 | 0 | 0 | 0 | – | – | 0 | – | – | – | – | – | –
CNC(=O)Nc1ccc2c(c1)[C@@]1(CC2)OC(=O)N(CC(=O)N(Cc2ccc(F)cc2)[C@@H](C)C(F)(F)F)C1=O [A-486] | 0 | 0 | 0 | 1 | 0 | 0 | 0 | 0 | 0 | 0 | – | – | 1 | 0 | – | 1 | – | 1 | – | –
Cc1nc(N2CC[C@H](O)C2)ncc1-c1cc(C(F)(F)F)cc2[nH]ncc12 | – | 1 | 0 | – | 0 | 1 | 0 | 1 | 0 | 0 | 0 | 0 | – | 0 | 1 | – | 1 | – | – | –
O=c1[nH]c2ccccc2n1C1CCN(Cc2ccc(-c3[nH]c4cc5ncnc5cc4nc3-c3ccccc3)cc2)CC1 | 0 | – | 1 | – | 0 | 0 | – | 0 | 0 | 0 | – | – | – | 0 | – | 1 | 1 | 1 | – | –
CC(C)c1noc(N2CCC(COc3ccc(-c4ccc(S(C)(=O)=O)cc4)nc3)CC2)n1 [GSK-1292263] | – | 0 | 0 | – | 0 | 0 | – | – | 1 | 1 | 0 | – | – | 0 | – | 1 | – | – | – | –
C=CC(=O)Nc1cccc(Oc2nc(Nc3ccc(N4CCN(C)CC4)cc3OC)ncc2Cl)c1 | – | 0 | 0 | – | 0 | 0 | 0 | 0 | 0 | 0 | – | – | – | 0 | – | – | – | – | – | –
C[C@]12CC[C@@H]3c4ccc(O)cc4CC[C@H]3[C@@H]1CC[C@@H]2O [ESTRADIOL] | – | 0 | 0 | – | 0 | – | 0 | 0 | 0 | 0 | 0 | – | – | 0 | – | – | – | – | 0 | –
CNC(=O)c1ccc(Nc2ncc(C(F)(F)F)c(NCc3nccnc3N(C)S(C)(=O)=O)n2)cc1 [DEFACTINIB] | 1 | – | 0 | – | 0 | 0 | 1 | 0 | 0 | 0 | 0 | 1 | 1 | 0 | 0 | – | – | – | 1 | –
COc1ccccc1CN[C@H]1C2CCN(CC2)[C@H]1C(c1ccccc1)c1ccccc1 [CP-96345] | – | – | 1 | 0 | 1 | 0 | – | 1 | 1 | 1 | 0 | 0 | 0 | 1 | 1 | – | – | – | – | 0
CCCSc1nc(N[C@@H]2C[C@H]2c2ccc(F)c(F)c2)c2nnn([C@@H]3C[C@H](OCCO)[C@@H](O)[C@H]3O)c2n1 [TICAGRELOR] | – | 0 | 0 | – | 0 | 0 | 0 | 0 | 0 | 0 | 0 | – | – | 0 | – | – | – | – | – | –
CNC(=O)Nc1ccc(-c2nc(N3CC4CCC(C3)O4)c3cnn(C4CCC5(CC4)OCCO5)c3n2)cc1 | 0 | 0 | 0 | – | 0 | – | 1 | 0 | 0 | 0 | 1 | – | – | 0 | – | – | 1 | 1 | 0 | –
CC(C)Oc1ccccc1C(=O)Nc1ccccc1C(=O)Nc1cccc(S(=O)(=O)C(F)(F)F)c1 | – | – | – | – | 1 | 0 | – | – | 1 | 1 | 0 | – | – | – | – | – | – | – | – | –
Cl.O=C(O)c1cc(-c2ccc(C3CCNCC3)cc2)c2ccc(-c3ccc(C(F)(F)F)cc3)cc2c1 | – | – | 1 | 0 | 1 | 1 | 0 | 0 | 0 | 0 | 0 | 0 | 0 | 1 | – | – | – | – | 0 | 0
